Consider three molecules from patent US20160102058A1, “FLUORO-PERHEXILINE COMPOUNDS AND THEIR THERAPEUTIC USE” (THE UNIVERSITY COURT OF THE UNIVERSITY OF ABERDEEN, priority 2013, published 2016).

A short description of series [1]: Rat liver microsomal (RLM) stability assay. The series is classed as in vitro ADME. The following applies: both sexes, pH 7.4, rat liver microsomes, 3 μM test compound; for microsomal CLint at 3 μM: read-out: CLint (μL/min/mg protein) RLM; for half-life at 3 μM: read-out: T½ (min) RLM. As for the experimental part:
(§1) The metabolic stability of fluoroperhexiline derivatives was measured by determination of the rate of compound disappearance when incubated in the presence of both human and rat liver microsomes. Liver microsomes are prepared from the endoplasmic reticulum of hepatocytes and are the primary source of the most important enzymes (cytochrome P450) involved in drug metabolism. Study of drug stability in the presence of liver microsomes is accepted as a valuable model permitting rapid prediction of in vivo drug stability.
(§2) Human and rat liver microsomes were obtained from a commercial source. Test compounds (3 μM) were incubated with pooled liver microsomes (male and female). Samples were incubated for a 45 minute period and removed at 5 time points and test compounds were analysed by LC-MS/MS.
(§3) Microsomes (final protein concentration 0.5 mg/mL), 0.1 M phosphate buffer pH 7.4, and test compound (final concentration 3 μM; diluted from 10 mM stock solution to give a final DMSO concentration of 0.25%) were incubated at 37° C. prior to the addition of NADPH (final concentration 1 mM) to initiate the reaction. The final incubation volume was 25 μL. A control incubation was included for each compound tested, where 0.1 M phosphate buffer pH 7.4 was added instead of NADPH. The control compounds testosterone and 7-hydroxycoumarin were included in each experiment and all incubations were performed singularly for each compound.
(§4) Each compound was incubated for 0, 5, 15, 30, and 45 minutes. The control (minus NADPH) was incubated for 45 minutes only. The reactions were stopped by the addition of 50 μL methanol containing internal standard at the appropriate time points. The incubation plates were centrifuged at 2500 rpm for 20 minutes at 4° C. to precipitate the protein.
(§5) Following protein precipitation, the sample supernatants were combined in cassettes of up to 4 compounds and analysed using standard LC-MS/MS conditions.
(§6) From a plot of the natural logarithm of the peak area ratio (i.e., the ratio of compound peak area:internal standard peak area) against time, the gradient of the line was determined. Subsequently, half-life and intrinsic clearance were calculated using the equations below:
(§7) Eliminated Rate Constant (k)=(−Gradient).
(§8) Half-Life (t1/2) (min)=0.063/k.
(§9) Intrinsic Clearance (CLint) […]=(V×0.693)/t1/2. • wherein V=Incubation Volume (μL/mg microsomal protein).

Series [2] is described as follows: Rat oral pharmacokinetics, plasma and myocardium. The series is classed as in vivo, male Sprague-Dawley rats. To be noted: for concentration at 1 h / concentration at 8 h: male, Sprague-Dawley, 10 mg/kg oral. The protocol: (§10) Absorption, distribution and metabolic stability were studied using an in vivo pharmacokinetics assay. Drug levels were assessed using LC/MS-MS.
(§11) Healthy male BALB/c mice (8-12 weeks old) weighing between 25 and 35 g, or Sprague-Dawley rats weighing between 250 and 300 g were procured from In-vivo Bioscience Bangalore, India. Three mice were housed in each cage. Temperature and humidity were maintained at 22±3° C. and 40-70%, respectively and illumination was controlled to give a sequence of 12 h light and 12 h dark cycle. Temperature and humidity were recorded by auto-controlled data logger system. All of the animals were provided laboratory rodent diet (Vetcare India Pvt. Ltd, Bengaluru) after the drug administration. Reverse osmosis water treated with ultraviolet light was provided ad libitum.
FPER-001 and perhexiline samples were freshly prepared each day before administration. The weighed quantity (36.5 mg) of FPER-001 for p.o. dosing was added into a mortar. […] The formulation was sonicated for 2 min to obtain a homogenous suspension.
(§12) Blood samples (approximately 60 μL) were collected from retro-orbital plexus of three mice at each time point (1, 4, 8, 24, 48, 72, 96, 120, 144, and 168 h) or of three rats at each time point (0.25, 0.5, 1, 2, 4, 8, 24, 25, 48, 72 and 73 h). Samples were collected into labeled micro-tubes, containing K2EDTA solution (20% K2EDTA solution) as an anticoagulant. Plasma was immediately harvested from the blood by centrifugation at 4000 rpm for 10 min at 4±2° C. and stored below −70° C. until bioanalysis. Immediately after collection of blood, myocardium samples were collected from each mouse at 1, 4, 8, 24, 48, 72, 96, 120, 144 and 168 h, or from each rat at 1, 8, 25 and 73 h. Myocardium samples were homogenized using ice-cold phosphate buffer saline (pH 7.4) and homogenates were stored below −70° C. until analysis. Total homogenate volume was five times the myocardium weight in mice, and three times the myocardium weight in rats.
(§13) The extraction procedures for plasma/myocardium samples and the spiked plasma calibration standards/quality control samples were identical.
(§14) A 25 μL of study sample or spiked calibration standard was added to individual pre-labeled micro-centrifuge tubes followed by 100 μL of internal standard prepared in acetonitrile (Glipizide 500 ng/mL) was added except for the blank, where 100 μL of acetonitrile was added. Samples were vortexed for 5 min. Samples were centrifuged for 10 min at a speed of 4000 rpm at 4° C. Following centrifugation, 100 μL of clear supernatant was transferred in 96-well plates and analysed using LC-MS/MS.
(§15) HPLC and MS conditions were as follows:
(§16) Non-Compartmental-Analysis tool of Phoenix WinNonlin® (Version 6.3) was used to assess the pharmacokinetic parameters. Peak plasma concentrations (Cmax) and time for the peak plasma concentrations (Tmax) were the observed values. The areas under the concentration time curve (AUClast and AUCinf) were calculated by linear trapezoidal rule. The terminal elimination rate constant (ke) was determined by regression analysis of the linear terminal portion of the log plasma concentration-time curve.
The oral absorption, distribution, and stability of FPER-001 and perhexiline were compared in the rat model as described above. Concentration was investigated for both plasma and myocardia in male Sprague-Dawley rats using an LC/MS/MS detection system as described above.

Series [3] can be described thus: Mouse oral pharmacokinetics, plasma and myocardium. It counts as in vivo, male BALB/c mice. The following applies: for AUC(0-t) / Cmax: male, BALB/c, 10 mg/kg oral gavage. The protocol:
as §10, §11
FPER-001 and perhexiline samples were freshly prepared each day before administration. The weighed quantity (11.19 mg) of FPER-001 for p.o. dosing was added into a mortar. […] The formulation was sonicated for 2 min to obtain a homogenous suspension. Thirty mice were administered with the oral formulation at 10 mg/kg dose through oral gavage using a 22-G oral feeding needle. The dosing volume administered was 10 mL/kg.
as §12, §13, §14, §15, §16
The oral absorption, distribution, and stability of FPER-001 and perhexiline were compared in the mouse model as described above. Maximum concentration (Cmax) and area under the curve (AUC) were investigated for both plasma and myocardia in male BALB/c mice, following 10 mg/kg oral gavage of FPER-001 or perhexiline, using an LC/MS/MS detection system as described above.

Series [4] can be described thus: Human liver microsomal (HLM) stability assay. The series is classed as in vitro ADME. The following applies: for microsomal CLint at 3 μM / half-life at 3 μM: both sexes, pH 7.4, human liver microsomes, 3 μM test compound; for microsomal CLint at 3 μM: read-out: CLint (μL/min/mg protein) HLM; for half-life at 3 μM: read-out: T½ (min) HLM; for metabolic stability compared with perhexiline (in words): human and rat liver microsomes, versus perhexiline. The protocol: as §1, §2, §3, §4, §5, §6, §7, §8, §9

[5] abbreviates: myocardium, 1 h, read-out: Conc., myocardium, 1 h.
The mark [6] stands for this setting: myocardium, 8 h, read-out: Conc., myocardium, 8 h.
The mark [7] stands for this setting: plasma, 1 h, read-out: Conc., plasma, 1 h.
[8] abbreviates: plasma, 8 h, read-out: Conc., plasma, 8 h.
Where [9] appears, read: myocardium, read-out: AUC 0-24, myocardium.
The mark [10] stands for this setting: myocardium, read-out: Cmax, myocardium.
Where [11] appears, read: plasma, read-out: AUC 0-24, plasma.

Molecules are shown by their SMILES. Read-outs that look alike come from different tables or passages of the source.

The Cmax is the peak of the concentration-time curve. `FC1(F)CCC(C(CC2CCCCN2)C2CCCCC2)CC1` (mixture of isomers) [FPER-001, 2-(2-Cyclohexyl-2-(4,4-difluorocyclohexyl)ethyl)piperidine]: the microsomal CLint at 3 μM in series [1] turned out to be 19 µL/min/mg; in series [4], 2.6 µL/min/mg. Further, the half-life at 3 μM in series [1] was 72 min; in series [4], 525 min. Further, the figures for the concentration at 1 h in series [2] (setting [5]) and in series [2] (setting [7]) were 5910 ng/mL and 386 ng/mL, respectively. Moreover, the results for the concentration at 8 h in series [2] (setting [6]) and in series [2] (setting [8]) were 1290 ng/mL and 179 ng/mL, respectively. In addition, the “drug concentration versus perhexiline, myocardium, 1 h” value in series [2] (oral dosing, myocardium, 1 h) was approximately 3 fold. Also, in series [2] (oral dosing, myocardium, 8 h), the “drug concentration versus perhexiline, myocardium, 8 h” value is approximately 3.5 fold. Moreover, in series [2] (oral dosing, plasma, 1 h), the “drug concentration versus perhexiline, plasma, 1 h” value is approximately 4 fold. The “drug concentration versus perhexiline, plasma, 8 h” value in series [2] (oral dosing, plasma, 8 h) is approximately 6 fold. In addition, the AUC(0-t) was found to be 32400 ng·h/mL in series [3] (setting [9]) and 3730 ng·h/mL in series [3] (setting [11]). Moreover, the Cmax in series [3] (setting [10]) stood at 1680 ng/mL; in series [3] (plasma, read-out: Cmax, plasma), 347 ng/mL. In series [3] (oral dosing, myocardium), the “drug exposure versus perhexiline, myocardium” value was approximately 18 fold. Further, the “maximum drug concentration versus perhexiline, myocardium” value in series [3] (oral dosing, myocardium) was approximately 2.5 fold. Moreover, the “drug exposure versus perhexiline, plasma” value in series [3] (oral dosing, plasma) was approximately 11 fold. Besides, the “maximum drug concentration versus perhexiline, plasma” value in series [3] (oral dosing, plasma) was approximately 3 fold. In addition, the “metabolic stability compared with perhexiline (in words)” value in series [4] was “substantial increase in metabolic stability”.

In the case of `FC1CCC(C(CC2CCCCN2)C2CCCCC2)CC1` (mixture of isomers) [FPER-003, 2-(2-Cyclohexyl-2-(4-fluorocyclohexyl)ethyl)piperidine], in series [1], the microsomal CLint at 3 μM is 129 µL/min/mg and the half-life at 3 μM is 11 min. Also, in series [4], the microsomal CLint at 3 μM came to 21.3 µL/min/mg, the half-life at 3 μM amounted to 65 min and the “metabolic stability compared with perhexiline (in words)” value is “substantial decrease in stability”.

In the case of `C1CCC(C(CC2CCCCN2)C2CCCCC2)CC1` (centres unmarked) [Perhexiline, 2-(2,2-dicyclohexylethyl)piperidine], the results for the microsomal CLint at 3 μM in series [1] and in series [4] were 65 µL/min/mg and 13.8 µL/min/mg, respectively. Further, the half-life at 3 μM in series [1] was 21 min; in series [4] it was 100 min. For the same molecule, the concentration at 1 h is 1900 ng/mL in series [2] (setting [5]) and 99.9 ng/mL in series [2] (setting [7]). Also, the concentration at 8 h in series [2] (setting [6]) turned out to be 361 ng/mL; in series [2] (setting [8]) it was 31.4 ng/mL. In addition, the AUC(0-t) is 1830 ng·h/mL in series [3] (setting [9]) and 350 ng·h/mL in series [3] (setting [11]). Besides, the highest concentration (Cmax) in series [3] (setting [10]) was determined as 665 ng/mL; in series [3] (plasma, read-out: Cmax, plasma) it was 116 ng/mL.
